Test: Double CuAAC of unprotected bis-azido peptide with triethynylphosphine oxide (1.2 eq), CuBr 10 eq, THPTA 20 eq; two-component cyclisation to ethynyl-ditriazolyl-phosphine oxide (EDPO) cyclic peptide; forms two 1,4-triazoles
Settings: the molecule shown is the open-chain precursor, NaOAc buffer (100 mM, pH 5)/MeCN 20%, ~2% DMSO, 1.0 mM, 25.0 °C, 0.083 h

[N-]=[N+]=NCCCC[C@H](NC(=O)[C@H](Cc1ccc(O)cc1)NC(=O)[C@H](CC(=O)O)NC(=O)CNC(=O)[C@H](CCCNC(=N)N)NC(=O)[C@H](CCCCN)NC(=O)CN=[N+]=[N-])C(N)=O [N3-Gly(azidoacetyl)-Lys-Arg-Gly-Asp-Tyr-Lys(N3)-NH2]
ring closure, isolated yield (30-membered ring): 41%

CC(=O)N[C@@H](CCC(=O)O)C(=O)N[C@H](C(=O)N[C@@H](Cc1ccccc1)C(=O)N[C@@H](CCCCN=[N+]=[N-])C(=O)N[C@@H](CC(=O)O)C(=O)N[C@@H](CC(C)C)C(=O)N[C@@H](Cc1c[nH]c2ccccc12)C(=O)N[C@@H](CCCNC(=N)N)C(=O)N[C@@H](CC(C)C)C(=O)N[C@@H](CC(C)C)C(=O)N[C@@H](CCCCN=[N+]=[N-])C(=O)N[C@@H](CCC(=O)O)C(=O)N[C@@H](CC(N)=O)C(N)=O)[C@@H](C)O
ring closure, isolated yield (37-membered ring): 24%

[N-]=[N+]=NCCCC[C@H](NC(=O)CN)C(=O)N[C@@H](CCCNC(=N)N)C(=O)N[C@@H](CCCNC(=N)N)C(=O)N[C@@H](CCCNC(=N)N)C(=O)N[C@@H](CCCNC(=N)N)C(=O)N[C@@H](CCCNC(=N)N)C(=O)N[C@@H](CCCNC(=N)N)C(=O)N[C@@H](CCCNC(=N)N)C(=O)N[C@@H](CCCNC(=N)N)C(=O)N[C@@H](CCCNC(=N)N)C(=O)N[C@@H](CCCNC(=N)N)C(=O)N[C@@H](CCCCN=[N+]=[N-])C(=O)NCC(N)=O
ring closure, isolated yield (49-membered ring): 18%

CC(C)C[C@H](NC(=O)CN=[N+]=[N-])C(=O)N[C@@H](Cc1ccc(O)cc1)C(=O)N[C@@H](CCCNC(=N)N)C(=O)N[C@@H](C)C(=O)N[C@@H](CCCCN=[N+]=[N-])C(N)=O [N3-Gly(azidoacetyl)-Leu-Tyr-Arg-Ala-Lys(N3)-NH2]
ring closure, isolated yield (27-membered ring): 39%

[N-]=[N+]=NCCCC[C@H](NC(=O)[C@@H](CCCNC(=N)N)NC(=O)[C@H](CCCNC(=N)N)NC(=O)[C@@H](CCCCN)NC(=O)[C@H](CCCCN)NC(=O)[C@@H](CCCNC(=N)N)NC(=O)CNC(=O)[C@@H](CCCNC(=N)N)NC(=O)[C@H](CCCNC(=N)N)NC(=O)[C@@H](CCCNC(=N)N)NC(=O)[C@@H](N)CCCCN=[N+]=[N-])C(N)=O
ring closure, isolated yield (46-membered ring): 39%

[N-]=[N+]=NCCCC[C@H](NC(=O)CN)C(=O)N[C@@H](CCCNC(=N)N)C(=O)N[C@@H](CCCNC(=N)N)C(=O)N[C@@H](CCCNC(=N)N)C(=O)N[C@@H](CCCNC(=N)N)C(=O)N[C@@H](CCCNC(=N)N)C(=O)N[C@@H](CCCNC(=N)N)C(=O)N[C@@H](CCCNC(=N)N)C(=O)N[C@@H](CCCNC(=N)N)C(=O)N[C@@H](CCCCN=[N+]=[N-])C(=O)NCC(N)=O
ring closure, isolated yield (43-membered ring): 27%

Source: paper PMC12435405
